We go through 6 molecules from patent US8933067B2, “Pyrido and pyrimidopyrimidine derivatives as anti-profilerative agents” (Janssen Pharmaceutica N.V., priority 2003, dated 2015).

The target in one series is T1, EGFR-kinase domain (Homo sapiens, UniProt P00533).
T1 construct: 0.35 μg/well poly(GT)biotin and 0.5 μg EGFR-kinase domain/well
Briefly: In vitro inhibition of EGFR (Flash Plate or glass-fiber filter kinase assay). It counts as biochemical. To be noted: pIC50; read-out: In vitro kinase activity assay.(C1): IC50 (converted). The procedure: The in vitro inhibition of EGFR was assessed using either the Flash Plate technology or the glass-fiber filter technology as described by Davies, S. P. et al., Biochem J. (2000), 351; p. 95-105. The Flash Plate technology is generally described by B. A. Brown et al. in High Throughput Screening (1997), p. 317-328. Editor(s): Devlin, John P. Publisher: Dekker, New York, N.Y.
In the Flash Plate EGFR kinase reaction assay, a kinase substrate consisting of biotinylated poly(L-glutamic acid-L-tyrosine) (poly(GT)biotin), is incubated with the aforementioned protein in the presence of (^33P) radiolabeled ATP. (^33P) phosphorylation of the substrate is subsequently measured as light energy emitted using a streptavidin-coated Flash Plate (PerkinElmer Life Sciences) by trapping and quantifying the binding of the biotin tagged and radiolabeled substrate.
The EGFR kinase reaction is performed at 30° C. for 60 minutes in a 96-well microtiter FlashPlate (PerkinElmer Life Sciences). For each of the tested compounds a full dose response 1.10^−6M to 1.10^−10M has been performed. IRESSA® and Tarceva™ (erlotinib) were used as reference compounds. The 100 μl reaction volume contains 54.5 mM TrisHCl pH 8.0, 10 mM MgCl2, 100 μM Na3VO4, 5.0 μM unlabeled ATP, 1 mM DTT, 0.009% BSA, 0.8 μCi AT^33P, 0.35 μg/well poly(GT)biotin and 0.5 μg EGFR-kinase domain/well.
The reaction is stopped by aspirating the reaction mixture and washing the plate 3× with 200 μl wash/stop buffer (PBS+100 mM EDTA). After the final wash step 200 μl of wash/stop buffer was added to each well and the amount of phosphorylated (^33P) Poly(GT)biotin determined by counting (30 sec/well) in a microtiterplate scintillation counter.
In the glass-fiber filter technology EGFR kinase reaction assay, a kinase substrate consisting of poly(L-glutamic acid-L-tyrosine) (poly(GT)), is incubated with the aforementioned protein in the presence of (^33P) radiolabeled ATP. (^33P) Phosporylation of the substrate is subsequently measured as radioactivity bound on a glassfiber-filter.
The EGFR kinase reaction is performed at 25° C. for 10 minutes in a 96-well microtiterplate. For each of the tested compounds a full dose response 1.10^−6M to 1.10^−10M has been performed. IRESSA® and Tarceva™ (erlotinib) were used as reference compounds. The 25 μl reaction volume contains 60 mM TrisHCl pH 7.5, 3 mM MgCl2, 3 mM Mn Cl2, 3 μM Na3VO4, 50 μg/ml PEG20000, 5.0 μM unlabeled ATP, 1 mM DTT, 0.1 μCi AT^33P, 62.5 ng/well poly(GT) and 0.5 μg EGFR-kinase domain/well.
The reaction is stopped by adding 5 μl of a 3% phosphoric acid solution. 10 μl of the reaction mixture is then spotted onto a Filtermat A filter (Wallac) and washed 3 times for 5 min. in 75 mM phosphoric acid and 1 time for 5 min. in methanol prior to drying and quantification on the Typhoon (Amersham) using a LE phosphorage storage screen.

In another series the test system is SKOV3 cells. The series can be described thus: Serum starved, EGF stimulated proliferation assay on ovarian carcinoma SKOV3 cells (MTT). Type of series: cell-based. To be noted: Homo sapiens, SK-OV-3; EGF 100 ng/ml, 72 hours, serum free; pIC50; read-out: SKOV3 cell (C2): IC50 (converted). As to the method:
The ovarian carcinoma cell line (SKOV3) was used in an epidermal growth factor stimulated cell proliferation assay, to assess the inhibitory effect of the compounds on EGF in whole cells.
In a first step the SKOV3 cells were incubated for 24 hours in the presence of 10% FCS serum. In the second step the cells were incubated with the compounds to be tested in a serum free condition (37° C. and 5% (v/v) CO2) and subsequently stimulated for 72 hours with EGF at a final concentration of 100 ng/ml. The effect of the compounds on the EGF stimulation was finally assessed in a standard MTT cell viability assay.

The term IC50 denotes the concentration needed to halve the response being measured. What is called melting point is the temperature of the solid-liquid transition.

T1 sequence (P00533 712-979 limits assumed): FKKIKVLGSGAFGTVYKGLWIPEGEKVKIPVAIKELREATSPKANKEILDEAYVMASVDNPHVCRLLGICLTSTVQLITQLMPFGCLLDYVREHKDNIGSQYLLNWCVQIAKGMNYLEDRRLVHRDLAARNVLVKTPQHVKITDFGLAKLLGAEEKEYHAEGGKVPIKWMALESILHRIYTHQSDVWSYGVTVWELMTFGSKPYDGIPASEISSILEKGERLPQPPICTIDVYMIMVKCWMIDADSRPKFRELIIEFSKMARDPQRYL

As for `Clc1ccc2c(c1)Nc1ncnc3ccc(nc13)NCCCCCCO2` [Compound 1, 7H,19H-4,6-ethanediylidenepyrimido[4,5-b][13,1,4,6]benzoxatriazacyclopentadecine, 17-chloro-8,9,10,11,12,13-hexahydro-], the IC50 on EGFR-kinase domain is 5.01 nM; in the series on SKOV3 cells, 589 nM.
Take `Clc1ccc2c(c1)Nc1ncnc3cnc(nc13)NCCCCCCO2` [Compound 2, 6,4-(nitrilometheno)pyrimido[4,5-b][13,1,4,6]benzoxatriazacyclopentadecine, 17-chloro-7,8,9,10,11,12,13,19-octahydro-]: the melting point was above 260 °C. For the same molecule, the concentration for half-maximal inhibition (IC50) at EGFR-kinase domain is 3.16 nM. Also, the IC50 in the series on SKOV3 cells is above 10000 nM.
With `OCCCCCCNc1ccc2ncnc(Nc3cc(Cl)ccc3O)c2n1` [Intermediate 2, phenol, 4-chloro-2-[[6-[(6-hydroxyhexyl)amino]pyrido[3,2-d]pyrimidin-4-yl]amino]-], the values for the 50% inhibitory concentration (IC50) at EGFR-kinase domain and in the series with SKOV3 cells were 6.31 nM and 3160 nM, respectively.
The matching figures for `OCCCCNc1ccc2ncnc(Nc3cc(Cl)ccc3O)c2n1` [Intermediate 3, phenol, 4-chloro-2-[[6-[(4-hydroxybutyl)amino]pyrido[3,2-d]pyrimidin-4-yl]amino]-]: 3.98 nM and 794 nM.
As for `OCCCCCNc1ccc2ncnc(Nc3cc(Cl)ccc3O)c2n1` [Intermediate 4, phenol, 4-chloro-2-[[6-[(5-hydroxypentyl)amino]pyrido[3,2-d]pyrimidin-4-yl]amino]-], the IC50 was 5.01 nM on EGFR-kinase domain and 1580 nM in the series on SKOV3 cells.
Consider `OCCCCCCNc1ncc2ncnc(Nc3cc(Cl)ccc3O)c2n1` [Intermediate 6, phenol, 4-chloro-2-[[6-[(6-hydroxyhexyl)amino]pyrimido[5,4-d]pyrimidin-4-yl]amino]-], for which the IC50 at EGFR-kinase domain is 3.98 nM; with SKOV3 cells, 1000 nM.
